The target of data set [1] is T1, Thyroid hormone receptor alpha (Homo sapiens, UniProt P10827).
T1 sequence (P10827 whole entry): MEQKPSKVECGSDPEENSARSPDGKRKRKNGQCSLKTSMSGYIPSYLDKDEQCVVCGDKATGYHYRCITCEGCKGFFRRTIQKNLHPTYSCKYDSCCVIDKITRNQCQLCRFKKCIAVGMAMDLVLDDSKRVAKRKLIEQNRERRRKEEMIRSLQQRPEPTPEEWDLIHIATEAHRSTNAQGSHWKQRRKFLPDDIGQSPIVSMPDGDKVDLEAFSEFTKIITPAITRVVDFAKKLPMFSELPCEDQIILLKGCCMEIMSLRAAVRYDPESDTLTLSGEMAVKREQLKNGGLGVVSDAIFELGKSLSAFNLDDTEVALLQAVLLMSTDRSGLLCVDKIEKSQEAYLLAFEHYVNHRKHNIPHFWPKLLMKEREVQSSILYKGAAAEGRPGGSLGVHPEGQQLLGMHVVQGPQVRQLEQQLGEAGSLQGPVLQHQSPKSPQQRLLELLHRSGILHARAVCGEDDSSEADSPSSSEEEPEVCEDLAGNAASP
Description: Agonist activity at human THRalpha-LBD transfected in HEK293T cells co-transfected with pFR-Luc/pRL-SV40 assessed as transfection efficiency by measuring luciferase activity measured after 16 hrs by Gal4 hybrid reporter gene assay

Data set [2] has as its target T2, Bile acid receptor (Homo sapiens, UniProt Q96RI1).
T2 sequence (Q96RI1 whole entry): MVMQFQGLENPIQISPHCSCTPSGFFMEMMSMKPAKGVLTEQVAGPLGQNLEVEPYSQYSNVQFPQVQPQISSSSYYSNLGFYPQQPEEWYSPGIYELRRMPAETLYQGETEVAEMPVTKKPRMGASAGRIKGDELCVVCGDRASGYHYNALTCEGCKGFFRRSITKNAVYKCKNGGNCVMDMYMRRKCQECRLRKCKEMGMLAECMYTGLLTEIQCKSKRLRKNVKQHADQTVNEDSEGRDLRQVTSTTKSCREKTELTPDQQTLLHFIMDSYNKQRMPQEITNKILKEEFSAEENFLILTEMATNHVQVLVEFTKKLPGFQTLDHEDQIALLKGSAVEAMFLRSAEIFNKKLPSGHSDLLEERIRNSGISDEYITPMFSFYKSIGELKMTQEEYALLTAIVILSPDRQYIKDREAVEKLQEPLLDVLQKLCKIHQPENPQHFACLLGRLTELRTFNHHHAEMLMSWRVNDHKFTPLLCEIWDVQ
Description: Agonist activity at human FXR-LBD transfected in HEK293T cells co-transfected with pFR-Luc/pRL-SV40 assessed as transfection efficiency by measuring luciferase activity measured after 16 hrs by Gal4 hybrid reporter gene assay

Data set [3] concerns the target T3, Nuclear receptor subfamily 4immunitygroup A member 1 (Homo sapiens, UniProt P22736).
Description: (§1) Agonist activity at Nur77 (unknown origin) by Gal4 hybrid reporter gene assay
Data set [4] addresses Nuclear receptor subfamily 4 group A member 3 (Homo sapiens, UniProt Q92570).
Description: Agonist activity at NOR1 (unknown origin) by Gal4 hybrid reporter gene assay
The target in data set [5] is T4, Retinoic acid receptor alpha (Homo sapiens, UniProt P10276).
T4 sequence (P10276 whole entry): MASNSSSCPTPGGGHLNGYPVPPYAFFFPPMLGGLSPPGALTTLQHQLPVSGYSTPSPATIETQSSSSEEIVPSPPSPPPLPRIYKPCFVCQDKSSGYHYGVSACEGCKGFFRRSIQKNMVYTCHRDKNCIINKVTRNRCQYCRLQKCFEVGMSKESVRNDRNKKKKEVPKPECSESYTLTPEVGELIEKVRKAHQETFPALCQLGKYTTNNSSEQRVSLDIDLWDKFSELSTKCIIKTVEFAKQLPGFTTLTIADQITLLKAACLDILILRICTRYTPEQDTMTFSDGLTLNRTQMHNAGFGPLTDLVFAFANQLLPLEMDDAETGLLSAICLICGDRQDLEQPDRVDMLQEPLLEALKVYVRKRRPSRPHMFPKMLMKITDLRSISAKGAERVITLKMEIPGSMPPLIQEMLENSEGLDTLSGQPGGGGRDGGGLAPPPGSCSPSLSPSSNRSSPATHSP
Description: Agonist activity at human RARalpha-LBD transfected in HEK293T cells co-transfected with pFR-Luc/pRL-SV40 assessed as transfection efficiency by measuring luciferase activity measured after 16 hrs by Gal4 hybrid reporter gene assay

Data set [6] deals with T5, Peroxisome proliferator-activated receptor gamma (Homo sapiens, UniProt P37231).
T5 sequence (P37231 whole entry): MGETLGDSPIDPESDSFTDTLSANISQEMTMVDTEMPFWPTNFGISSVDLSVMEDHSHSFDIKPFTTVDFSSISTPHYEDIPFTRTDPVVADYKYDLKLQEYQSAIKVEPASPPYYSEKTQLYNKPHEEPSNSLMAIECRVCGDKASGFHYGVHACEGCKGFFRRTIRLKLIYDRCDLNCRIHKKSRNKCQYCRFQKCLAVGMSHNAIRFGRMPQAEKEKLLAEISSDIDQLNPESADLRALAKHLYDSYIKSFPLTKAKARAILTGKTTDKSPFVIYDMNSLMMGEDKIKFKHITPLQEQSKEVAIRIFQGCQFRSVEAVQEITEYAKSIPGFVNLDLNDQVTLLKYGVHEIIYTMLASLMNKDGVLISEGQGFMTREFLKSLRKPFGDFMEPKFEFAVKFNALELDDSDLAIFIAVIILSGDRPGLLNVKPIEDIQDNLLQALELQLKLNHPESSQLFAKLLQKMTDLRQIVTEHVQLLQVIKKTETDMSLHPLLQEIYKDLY
Description: Agonist activity at human PPARgamma-LBD transfected in HEK293T cells co-transfected with pFR-Luc/pRL-SV40 assessed as transfection efficiency by measuring luciferase activity measured after 16 hrs by Gal4 hybrid reporter gene assay

The target of data set [7] is T6, Vitamin D3 receptor (Homo sapiens, UniProt P11473).
T6 sequence (P11473 whole entry): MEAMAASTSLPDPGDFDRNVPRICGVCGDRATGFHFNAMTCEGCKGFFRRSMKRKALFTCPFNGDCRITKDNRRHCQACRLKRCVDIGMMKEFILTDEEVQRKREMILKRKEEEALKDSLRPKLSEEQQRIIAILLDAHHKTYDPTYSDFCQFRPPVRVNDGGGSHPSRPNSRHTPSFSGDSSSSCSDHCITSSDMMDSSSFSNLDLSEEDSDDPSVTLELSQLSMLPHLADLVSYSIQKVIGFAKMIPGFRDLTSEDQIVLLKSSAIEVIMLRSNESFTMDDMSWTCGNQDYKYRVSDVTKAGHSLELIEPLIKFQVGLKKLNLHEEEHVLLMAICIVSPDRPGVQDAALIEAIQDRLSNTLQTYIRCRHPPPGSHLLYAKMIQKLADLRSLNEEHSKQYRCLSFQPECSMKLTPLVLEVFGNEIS
Description: Agonist activity at human VDR-LBD transfected in HEK293T cells co-transfected with pFR-Luc/pRL-SV40 assessed as transfection efficiency by measuring luciferase activity measured after 16 hrs by Gal4 hybrid reporter gene assay

For data set [8], the target named is T7, Peroxisome proliferator-activated receptor alpha (Homo sapiens, UniProt Q07869).
T7 sequence (Q07869 whole entry): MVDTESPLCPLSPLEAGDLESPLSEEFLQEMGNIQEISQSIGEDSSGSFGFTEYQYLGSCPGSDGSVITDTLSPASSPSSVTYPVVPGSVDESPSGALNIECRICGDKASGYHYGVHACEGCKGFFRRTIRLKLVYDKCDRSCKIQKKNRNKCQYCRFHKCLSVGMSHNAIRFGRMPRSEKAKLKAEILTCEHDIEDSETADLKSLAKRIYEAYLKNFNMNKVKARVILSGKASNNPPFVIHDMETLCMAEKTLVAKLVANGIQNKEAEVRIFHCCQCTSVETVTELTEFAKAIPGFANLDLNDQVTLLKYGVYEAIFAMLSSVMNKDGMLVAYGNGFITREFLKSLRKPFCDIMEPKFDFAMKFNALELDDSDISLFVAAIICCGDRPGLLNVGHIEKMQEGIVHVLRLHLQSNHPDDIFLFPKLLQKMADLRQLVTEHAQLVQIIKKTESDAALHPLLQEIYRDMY
Description: Agonist activity at human PPARalpha-LBD transfected in HEK293T cells co-transfected with pFR-Luc/pRL-SV40 assessed as transfection efficiency by measuring luciferase activity measured after 16 hrs by Gal4 hybrid reporter gene assay

Data set [9] deals with T8, Retinoic acid receptor RXR-alpha (Homo sapiens, UniProt P19793).
T8 sequence (P19793 whole entry): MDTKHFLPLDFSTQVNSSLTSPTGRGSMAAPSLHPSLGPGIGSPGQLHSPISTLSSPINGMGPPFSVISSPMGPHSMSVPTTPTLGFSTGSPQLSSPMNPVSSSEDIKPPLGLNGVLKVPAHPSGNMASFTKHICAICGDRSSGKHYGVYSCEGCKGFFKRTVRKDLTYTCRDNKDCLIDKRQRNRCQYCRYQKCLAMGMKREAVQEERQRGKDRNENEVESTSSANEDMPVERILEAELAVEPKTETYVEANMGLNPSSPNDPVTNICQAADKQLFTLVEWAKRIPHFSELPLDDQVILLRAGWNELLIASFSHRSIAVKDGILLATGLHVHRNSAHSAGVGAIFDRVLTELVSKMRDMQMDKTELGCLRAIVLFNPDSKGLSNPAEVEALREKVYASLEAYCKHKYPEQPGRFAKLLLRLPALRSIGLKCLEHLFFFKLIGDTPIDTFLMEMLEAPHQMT
Description: Agonist activity at human RXRalpha-LBD transfected in HEK293T cells co-transfected with pFR-Luc/pRL-SV40 assessed as transfection efficiency by measuring luciferase activity measured after 16 hrs by Gal4 hybrid reporter gene assay

For data set [10], the target named is T3, Nuclear receptor subfamily 4immunitygroup A member 1. Briefly: cell-based.
Description: as §1
For data set [11] the following is noted: rat, in vivo, po, 5 mg/kg, 8 h.
Data set [12] in a line: in vivo. Conditions: Sprague-Dawley, rat, po, 5 mg/kg.
Data set [13] has as its target Dihydroorotate dehydrogenase (quinone), mitochondrial (Rattus norvegicus, UniProt Q63707).
Description: Inhibition of rat recombinant DHODH by colorimetric assay

The text below walks through data of ChEMBL document CHEMBL5380872, “Development of a Potent Nurr1 Agonist Tool for In Vivo Applications” (J Med Chem, 2023).

Where only a bound is given, the exact number is not on record here.

T3 sequence (P22736 whole entry): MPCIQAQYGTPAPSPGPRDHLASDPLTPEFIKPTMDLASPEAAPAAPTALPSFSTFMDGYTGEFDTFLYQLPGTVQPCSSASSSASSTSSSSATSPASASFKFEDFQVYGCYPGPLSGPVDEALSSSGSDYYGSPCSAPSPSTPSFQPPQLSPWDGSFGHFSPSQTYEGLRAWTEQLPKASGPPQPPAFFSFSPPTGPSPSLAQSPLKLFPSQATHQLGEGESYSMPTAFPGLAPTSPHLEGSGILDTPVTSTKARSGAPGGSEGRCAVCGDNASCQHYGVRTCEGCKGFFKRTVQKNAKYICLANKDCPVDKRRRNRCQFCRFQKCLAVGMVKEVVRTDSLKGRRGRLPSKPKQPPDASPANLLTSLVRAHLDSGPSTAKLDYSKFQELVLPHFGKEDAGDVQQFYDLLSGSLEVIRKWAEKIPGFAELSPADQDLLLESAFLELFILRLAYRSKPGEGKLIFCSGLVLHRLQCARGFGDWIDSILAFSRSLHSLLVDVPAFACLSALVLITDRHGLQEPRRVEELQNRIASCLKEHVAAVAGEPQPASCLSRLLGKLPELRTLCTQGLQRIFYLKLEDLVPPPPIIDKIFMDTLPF
Sequence of Nuclear receptor subfamily 4 group A member 3 (Q92570 whole entry): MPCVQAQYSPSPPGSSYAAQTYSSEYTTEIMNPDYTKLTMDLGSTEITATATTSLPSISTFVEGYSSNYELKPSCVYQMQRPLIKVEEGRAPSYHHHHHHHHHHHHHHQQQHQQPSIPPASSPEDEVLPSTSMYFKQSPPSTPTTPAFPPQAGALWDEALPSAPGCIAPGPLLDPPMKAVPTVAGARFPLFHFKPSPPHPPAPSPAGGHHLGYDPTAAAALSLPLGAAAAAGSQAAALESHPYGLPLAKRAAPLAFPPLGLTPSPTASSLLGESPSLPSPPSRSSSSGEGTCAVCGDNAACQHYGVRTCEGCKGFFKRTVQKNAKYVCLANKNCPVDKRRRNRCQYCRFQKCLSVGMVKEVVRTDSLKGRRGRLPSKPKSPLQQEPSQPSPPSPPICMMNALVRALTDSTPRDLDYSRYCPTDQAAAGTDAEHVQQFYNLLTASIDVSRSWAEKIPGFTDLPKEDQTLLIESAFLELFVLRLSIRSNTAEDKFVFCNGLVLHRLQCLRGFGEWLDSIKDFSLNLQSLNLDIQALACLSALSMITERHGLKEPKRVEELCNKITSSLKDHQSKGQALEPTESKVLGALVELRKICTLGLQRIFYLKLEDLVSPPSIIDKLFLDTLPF
Sequence of Dihydroorotate dehydrogenase (quinone), mitochondrial (Q63707 whole entry): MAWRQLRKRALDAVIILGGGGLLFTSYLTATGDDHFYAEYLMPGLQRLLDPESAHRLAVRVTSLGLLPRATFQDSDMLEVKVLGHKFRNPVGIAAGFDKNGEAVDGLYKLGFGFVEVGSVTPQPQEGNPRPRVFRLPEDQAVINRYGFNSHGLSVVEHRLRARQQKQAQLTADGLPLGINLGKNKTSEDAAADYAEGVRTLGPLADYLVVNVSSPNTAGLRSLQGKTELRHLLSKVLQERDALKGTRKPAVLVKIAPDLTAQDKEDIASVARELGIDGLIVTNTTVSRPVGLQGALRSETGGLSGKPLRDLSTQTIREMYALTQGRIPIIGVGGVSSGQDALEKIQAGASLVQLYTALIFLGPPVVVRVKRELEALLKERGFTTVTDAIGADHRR

Usually EC50 stands for the midpoint of the concentration-response curve. Low values mean greater potency, high ones weaker potency. Take `COc1cccc(-c2ccc(NC(=O)C3=C(C(=O)O)CCC3)c(F)c2)c1` [VIDOFLUDIMUS]: the EC50 is above 10 µM in data set [1]; above 10 µM in data set [2]; 3.1 µM in data set [3]; 2.9 µM in data set [4]; above 10 µM in [5]; above 10 µM in data set [6]. Further, the EC50 in data set [7], in data set [8] and in [9] was above 10 µM each time.
As usually defined, the Cmax is the maximum level reached in the sampled fluid or tissue. Usually AUC stands for the area under the concentration-time curve, a measure of exposure. For orientation: IC50 means the concentration needed to halve the response being measured. Higher therefore signals a need for much substance. As for `C#CCOc1cccc(-c2ccc(NC(=O)C3=C(C(=O)O)CCC3)c(F)c2)c1`, in [10], the response was half-maximal at 1.4 µM (EC50). The Cmax in [11] was determined as 56 µM. Also, in data set [12], the AUC at 8 h was 290 µM·h. 6 µM corresponded to half-maximal inhibition in [13] (IC50).
